Measurements from article PMC12446476 (Nature Communications, 2025).

System: N. gonorrhoeae
Test: N. gonorrhoeae murine vaginal infection model, efficacy
Format: in vivo, mouse
Protocol: The N. gonorrhoeae female mouse vaginal model[45] was performed in accordance with the Guide for Care and Use of Laboratory Animals[75]. Animal rooms were maintained at a temperature range of 20–24 °C and humidity between 30% and 70%, with 12 h light/dark cycles. Ovariectomized BALB/c female mice (5–6 weeks, BioLASCO Taiwan Co., Ltd.) were treated with estradiol (0.23 mg/mouse) two days before infection and on the day of infection. Ovariectomized mice were used to avoid staging mice before treating them with estradiol. Beginning two days prior to infection and maintained until the end of the study, animals were treated twice daily with streptomycin (1.2 mg/mouse) and vancomycin (0.6 mg/mouse) each via intraperitoneal (IP) injection and received trimethoprim sulfate in the drinking water (0.4 mg/mL) to control vaginal microflora. Animals were anesthetised with pentobarbital (80 mg/kg), the vagina was rinsed with 50 mM HEPES (pH 7.4), and then inoculated with N. gonorrhoeae in pre-warmed PBS (0.02 mL/mouse containing ~1 × 10^5 CFU).
Control groups received either a single IP injection of ceftriaxone or 5% dextrose (vehicle) twice daily. Animals were sacrificed via CO2 asphyxiation at either 2 h (baseline), 26 and/or 50 h post-infection. Vaginal lavage was performed twice with 200 µL GC broth containing 0.05% saponin to recover bacteria. Bacterial burden in the lavage fluids was determined by performing 10-fold serial dilutions and plating on chocolate agar plates. Four strains were assessed using the model; ATCC 700825 is naturally streptomycin-resistant, whereas AR Bank0179-15, AR Bank0181-17 and WHO X-07 are derivatives of AR Bank0179, AR Bank0181 and WHO X, respectively, that were engineered for streptomycin resistance for use in the model.

Cc1c(CN(C)C(=O)/C=C/c2cnc3c(c2)N[C@H](C)[C@H](O)C(=O)N3)oc2ccccc12 [Debio 1453]
Mean Diff. 0h vs. treatment, log10 CFU (AR Bank0179-15, 20 µg/mL Debio 1453, 24h): -1.082 | Mean Diff. 0h vs. treatment, log10 CFU (AR Bank0179-15, 20 µg/mL Debio 1453, 48h): -1.16 | Mean Diff. 0h vs. treatment, log10 CFU (AR Bank0179-15, 40 µg/mL Debio 1453, 24h): -0.242 | Mean Diff. 0h vs. treatment, log10 CFU (AR Bank0179-15, 40 µg/mL Debio 1453, 48h): 1.58 | Mean Diff. 0h vs. treatment, log10 CFU (AR Bank0179-15, 60 µg/mL Debio 1453, 24h): 1.644 | Mean Diff. 0h vs. treatment, log10 CFU (AR Bank0179-15, 60 µg/mL Debio 1453, 48h): 2.864 | Mean Diff. 0h vs. treatment, log10 CFU (AR Bank0179-15, 80 µg/mL Debio 1453, 24h): 1.958 | Mean Diff. 0h vs. treatment, log10 CFU (AR Bank0179-15, 80 µg/mL Debio 1453, 48h): 2.964 | Mean Diff. 0h vs. treatment, log10 CFU (AR Bank0179-15, 24h): 3.186 | Mean Diff. 0h vs. treatment, log10 CFU (AR Bank0179-15, 48h): 3.186 | Mean Diff. 0h vs. treatment, log10 CFU (AR Bank0181-17, 40 µg/mL Debio 1453, 24h): -1.694 | Mean Diff. 0h vs. treatment, log10 CFU (AR Bank0181-17, 40 µg/mL Debio 1453, 48h): -0.796 | Mean Diff. 0h vs. treatment, log10 CFU (AR Bank0181-17, 60 µg/mL Debio 1453, 24h): -1.094 | Mean Diff. 0h vs. treatment, log10 CFU (AR Bank0181-17, 60 µg/mL Debio 1453, 48h): -0.998 | Mean Diff. 0h vs. treatment, log10 CFU (AR Bank0181-17, 80 µg/mL Debio 1453, 24h): -0.986 | Mean Diff. 0h vs. treatment, log10 CFU (AR Bank0181-17, 80 µg/mL Debio 1453, 48h): -0.852 | Mean Diff. 0h vs. treatment, log10 CFU (AR Bank0181-17, 320 µg/mL Debio 1453, 24h): 3.42 | Mean Diff. 0h vs. treatment, log10 CFU (AR Bank0181-17, 320 µg/mL Debio 1453, 48h): 3.56 | Mean Diff. 0h vs. treatment, log10 CFU (AR Bank0181-17, 24h): 0.842 | Mean Diff. 0h vs. treatment, log10 CFU (AR Bank0181-17, 48h): 1.134 | Mean Diff. 0h vs. treatment, log10 CFU (ATCC 700825, 20 µg/mL Debio 1453, 24h): -0.874 | Mean Diff. 0h vs. treatment, log10 CFU (ATCC 700825, 20 µg/mL Debio 1453, 48h): -1.386 | Mean Diff. 0h vs. treatment, log10 CFU (ATCC 700825, 40 µg/mL Debio 1453, 24h): -0.322 | Mean Diff. 0h vs. treatment, log10 CFU (ATCC 700825, 40 µg/mL Debio 1453, 48h): -0.946 | Mean Diff. 0h vs. treatment, log10 CFU (ATCC 700825, 60 µg/mL Debio 1453, 24h): 1.296 | Mean Diff. 0h vs. treatment, log10 CFU (ATCC 700825, 60 µg/mL Debio 1453, 48h): 2.468 | Mean Diff. 0h vs. treatment, log10 CFU (ATCC 700825, 80 µg/mL Debio 1453, 24h): 2.796 | Mean Diff. 0h vs. treatment, log10 CFU (ATCC 700825, 80 µg/mL Debio 1453, 48h): 3.082 | Mean Diff. 0h vs. treatment, log10 CFU (ATCC 700825, 24h): 2.942 | Mean Diff. 0h vs. treatment, log10 CFU (ATCC 700825, 48h): 3.082 | Mean Diff. 0h vs. treatment, log10 CFU (WHO X-07, 40 µg/mL Debio 1453, 24h): -1.944 | Mean Diff. 0h vs. treatment, log10 CFU (WHO X-07, 40 µg/mL Debio 1453, 48h): -2.102 | Mean Diff. 0h vs. treatment, log10 CFU (WHO X-07, 60 µg/mL Debio 1453, 24h): -1.81 | Mean Diff. 0h vs. treatment, log10 CFU (WHO X-07, 60 µg/mL Debio 1453, 48h): -1.666 | Mean Diff. 0h vs. treatment, log10 CFU (WHO X-07, 80 µg/mL Debio 1453, 24h): -1.492 | Mean Diff. 0h vs. treatment, log10 CFU (WHO X-07, 80 µg/mL Debio 1453, 48h): -1.246 | Mean Diff. 0h vs. treatment, log10 CFU (WHO X-07, 320 µg/mL Debio 1453, 24h): 3.01 | Mean Diff. 0h vs. treatment, log10 CFU (WHO X-07, 320 µg/mL Debio 1453, 48h): 3.322 | Mean Diff. 0h vs. treatment, log10 CFU (WHO X-07, 24h): 2.532 | Mean Diff. 0h vs. treatment, log10 CFU (WHO X-07, 48h): 3.114 | reduction compared to the start of treatment (0 h) (each of four strains, dosed as Debio 1453 P, limit of detection by 48 h for at least one dose level): ~ 3 log10CFU/mL
